This note sets out measurements from PubChem BioAssay AID220 (DTP/NCI, 2004).

Values joined by “and” are separate entries in the source; they are usually repeats but may differ in a detail not shown here. Identical values can stand only once. Records with an inconclusive call do not appear.

The assay concerns CD8F1 mice, subcutaneous mammary adenocarcinoma, T/C%. Put plainly: NCI In Vivo Anticancer Drug Screen. Data for tumor model Mammary Adenocarcinoma CD8F1 (subcutaneous) in CD8F1. The conditions noted are these: higher = larger tumour. The procedure, abridged:
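Antitumor activity is assessed in transplantable-tumor mice by comparing the treated group with a vehicle-treated control group. Survival or tumor size serves as the measure, reported as T divided by C.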

The mark [1] stands for this setting: endpoint: median tumor weight (est.), dose: 25.0 mg/kg/injection, schedule: Q07DX005 (ip), vehicle: saline with Tween-80.
Setting [2] is: endpoint: median tumor weight (est.), dose: 50.0 mg/kg/injection, schedule: Q07DX005 (ip), vehicle: saline with Tween-80.
Where [3] appears, read: endpoint: median tumor weight (est.), dose: 100.0 mg/kg/injection, schedule: Q07DX005 (ip), vehicle: saline with Tween-80.
The mark [4] stands for this setting: endpoint: median tumor weight (est.), dose: 200.0 mg/kg/injection, schedule: Q07DX005 (ip), vehicle: saline with Tween-80.
The mark [5] stands for this setting: endpoint: median tumor weight (est.), dose: 400.0 mg/kg/injection, schedule: Q07DX005 (ip), vehicle: saline with Tween-80.
Where [6] appears, read: endpoint: median tumor weight (est.), dose: 12.5 mg/kg/injection, schedule: Q07DX005 (ip), vehicle: saline with Tween-80.
Where [7] appears, read: endpoint: median tumor weight (est.), dose: 12.5 mg/kg/injection, schedule: Q07DX005 (ip), vehicle: saline.
Where [8] appears, read: endpoint: median tumor weight (est.), dose: 25.0 mg/kg/injection, schedule: Q07DX005 (ip), vehicle: saline.
Setting [9] is: endpoint: median tumor weight (est.), dose: 50.0 mg/kg/injection, schedule: Q07DX005 (ip), vehicle: saline.
Where [10] appears, read: endpoint: median tumor weight (est.), dose: 100.0 mg/kg/injection, schedule: Q07DX005 (ip), vehicle: saline.
[11] abbreviates: endpoint: median tumor weight (est.), dose: 200.0 mg/kg/injection, schedule: Q07DX005 (ip), vehicle: saline.
The mark [12] stands for this setting: endpoint: median tumor weight (est.), dose: 400.0 mg/kg/injection, schedule: Q07DX005 (ip), vehicle: saline.

For the compound `COc1ccc2cc1Oc1ccc(cc1)C[C@H]1c3cc(c(OC)cc3CCN1C)Oc1c(OC)c(OC)cc3c1[C@H](C2)N(C)CC3`, the T/C under setting [1] was 115 % of control; the T/C under setting [2] was 102 % of control; the T/C under setting [3] is 117 % of control; the T/C under setting [4] was 64 % of control; the T/C under setting [5] was 37 % of control.
Take `CCN(CC)CCOCCO`: the T/C (endpoint: median tumor weight change, dose: 62.5 mg/kg/injection, schedule: Q01DX001 (ip), vehicle: saline) was 151 % of control; the T/C (endpoint: median tumor weight change, dose: 125.0 mg/kg/injection, schedule: Q01DX001 (ip), vehicle: saline) is 172 % of control; the T/C (endpoint: median tumor weight change, dose: 250.0 mg/kg/injection, schedule: Q01DX001 (ip), vehicle: saline) is 65 % of control.
Consider `Nc1nc(N)c2cc(CNc3ccc(C(=O)NC(CC(=O)O)CC(=O)O)cc3)ccc2n1`, for which the T/C by setting is: (endpoint: median tumor weight (est.), dose: 12.5 mg/kg/injection, schedule: Q07DX005 (ip), vehicle: Klucel (hydroxypropylcellulose) (HPC)) 86 % of control; (endpoint: median tumor weight (est.), dose: 25.0 mg/kg/injection, schedule: Q07DX005 (ip), vehicle: Klucel (hydroxypropylcellulose) (HPC)) 92 % of control; (endpoint: median tumor weight (est.), dose: 50.0 mg/kg/injection, schedule: Q07DX005 (ip), vehicle: Klucel (hydroxypropylcellulose) (HPC)) 81 % of control; (endpoint: median tumor weight (est.), dose: 100.0 mg/kg/injection, schedule: Q07DX005 (ip), vehicle: Klucel (hydroxypropylcellulose) (HPC)) 54 % of control.
Regarding `COc1cc(NS(C)(=O)=O)ccc1Nc1c2ccccc2nc2ccccc12`, the T/C was 158 % of control (endpoint: mean tumor weight (est.), dose: 4.0 mg/kg/injection, schedule: Q07DX004 (ip), vehicle: saline); 120 % of control (endpoint: mean tumor weight (est.), dose: 8.0 mg/kg/injection, schedule: Q07DX004 (ip), vehicle: saline); 109 % of control (endpoint: mean tumor weight (est.), dose: 16.0 mg/kg/injection, schedule: Q07DX004 (ip), vehicle: saline); 79 % of control (endpoint: mean tumor weight (est.), dose: 32.0 mg/kg/injection, schedule: Q07DX004 (ip), vehicle: saline); 66 % of control (endpoint: mean tumor weight, dose: 2.0 mg/kg/injection, schedule: Q05DX005 (ip), vehicle: saline); 82 % of control (endpoint: mean tumor weight, dose: 4.0 mg/kg/injection, schedule: Q05DX005 (ip), vehicle: saline). The T/C (endpoint: mean tumor weight, dose: 4.0 mg/kg/injection, schedule: Q07DX004 (ip), vehicle: saline) was 51 % of control; the T/C (endpoint: mean tumor weight, dose: 8.0 mg/kg/injection, schedule: Q05DX005 (ip), vehicle: saline) was 62 % of control; the T/C (endpoint: mean tumor weight, dose: 8.0 mg/kg/injection, schedule: Q07DX004 (ip), vehicle: saline) was 28 % of control; the T/C (endpoint: mean tumor weight, dose: 16.0 mg/kg/injection, schedule: Q05DX005 (ip), vehicle: saline) was 39 % of control; the T/C (endpoint: mean tumor weight, dose: 16.0 mg/kg/injection, schedule: Q07DX004 (ip), vehicle: saline) is 23 % of control; the T/C (endpoint: mean tumor weight, dose: 32.0 mg/kg/injection, schedule: Q07DX004 (ip), vehicle: saline) was 18 % of control. The T/C runs as follows: (endpoint: median tumor weight (est.), dose: 1.0 mg/kg/injection, schedule: Q01DX005 (ip), vehicle: Klucel (hydroxypropylcellulose) (HPC)) 73 % of control; (endpoint: median tumor weight (est.), dose: 2.0 mg/kg/injection, schedule: Q01DX005 (ip), vehicle: Klucel (hydroxypropylcellulose) (HPC)) 94 % of control; (endpoint: median tumor weight (est.), dose: 2.0 mg/kg/injection, schedule: Q07DX005 (ip), vehicle: Klucel (hydroxypropylcellulose) (HPC)) 195 % of control; (endpoint: median tumor weight (est.), dose: 4.0 mg/kg/injection, schedule: Q01DX005 (ip), vehicle: Klucel (hydroxypropylcellulose) (HPC)) 80 % of control; (endpoint: median tumor weight (est.), dose: 4.0 mg/kg/injection, schedule: Q04DX005 (ip), vehicle: Klucel (hydroxypropylcellulose) (HPC)) 119 % of control; (endpoint: median tumor weight (est.), dose: 4.0 mg/kg/injection, schedule: Q07DX005 (ip), vehicle: Klucel (hydroxypropylcellulose) (HPC)) 42 % of control and 65 % of control. Also, the T/C is, setting by setting: (endpoint: median tumor weight (est.), dose: 8.0 mg/kg/injection, schedule: Q01DX005 (ip), vehicle: Klucel (hydroxypropylcellulose) (HPC)) 59 % of control; (endpoint: median tumor weight (est.), dose: 8.0 mg/kg/injection, schedule: Q04DX005 (ip), vehicle: Klucel (hydroxypropylcellulose) (HPC)) 35 % of control; (endpoint: median tumor weight (est.), dose: 16.0 mg/kg/injection, schedule: Q01DX001 (ip), vehicle: Klucel (hydroxypropylcellulose) (HPC)) 93 % of control; (endpoint: median tumor weight (est.), dose: 16.0 mg/kg/injection, schedule: Q01DX005 (ip), vehicle: Klucel (hydroxypropylcellulose) (HPC)) 38 % of control; (endpoint: median tumor weight (est.), dose: 16.0 mg/kg/injection, schedule: Q04DX005 (ip), vehicle: Klucel (hydroxypropylcellulose) (HPC)) 17 % of control; (endpoint: median tumor weight (est.), dose: 32.0 mg/kg/injection, schedule: Q01DX001 (ip), vehicle: Klucel (hydroxypropylcellulose) (HPC)) 35 % of control. In addition, the T/C was 3 % of control and 10 % of control (endpoint: median tumor weight (est.), dose: 32.0 mg/kg/injection, schedule: Q07DX005 (ip), vehicle: Klucel (hydroxypropylcellulose) (HPC)); 39 % of control (endpoint: median tumor weight (est.), dose: 64.0 mg/kg/injection, schedule: Q01DX001 (ip), vehicle: Klucel (hydroxypropylcellulose) (HPC)).
As for `Cc1cn(C2CC3[O][Sn]([c]4ccccc4)([c]4ccccc4)[O]CC3O2)c(=O)[nH]c1=O` (centres undefined), the T/C runs as follows: under setting [6], 73 % of control; under setting [7], 63 % of control; under setting [1], 40 % of control; under setting [8], 16 % of control; under setting [2], 67 % of control; under setting [9], 84 % of control. Further, the T/C under setting [3] was 81 % of control; the T/C under setting [10] was 49 % of control; the T/C under setting [4] was 73 % of control; the T/C under setting [11] is 74 % of control; the T/C (endpoint: median tumor weight (est.), dose: 500.0 mg/kg/injection, schedule: Q07DX005 (ip), vehicle: saline with Tween-80) was 47 % of control.
Turning to `N=c1ccn2c(n1)OC1C(O)C(CO)OC12` (centres undefined), the T/C runs as follows: under setting [8], 80 % of control; under setting [9], 159 % of control; under setting [10], 111 % of control; (endpoint: median tumor weight (est.), dose: 100.0 mg/kg/injection, schedule: Q07DX005 (ip), vehicle: suspension in saline) 81 % of control; under setting [11], 53 % of control; (endpoint: median tumor weight (est.), dose: 200.0 mg/kg/injection, schedule: Q07DX005 (ip), vehicle: suspension in saline) 109 % of control. Also, the T/C reads like this: under setting [12], 22 % of control; (endpoint: median tumor weight (est.), dose: 400.0 mg/kg/injection, schedule: Q07DX005 (ip), vehicle: suspension in saline) 70 % of control; (endpoint: median tumor weight (est.), dose: 600.0 mg/kg/injection, schedule: Q07DX005 (ip), vehicle: saline) 21 % of control; (endpoint: median tumor weight (est.), dose: 800.0 mg/kg/injection, schedule: Q07DX005 (ip), vehicle: suspension in saline) 52 % of control; (endpoint: median tumor weight (est.), dose: 1600.0 mg/kg/injection, schedule: Q07DX005 (ip), vehicle: suspension in saline) 35 % of control.
For the compound `CC1(C)CC2(C)OC2C2(C1)N=NC(=Nc1ccccc1)O2` (centres undefined), the T/C was 78 % of control (endpoint: median tumor weight change, dose: 125.0 mg/kg/injection, schedule: Q01DX001 (ip), vehicle: saline with Tween-80); 64 % of control (endpoint: median tumor weight change, dose: 250.0 mg/kg/injection, schedule: Q01DX001 (ip), vehicle: saline with Tween-80); 41 % of control (endpoint: median tumor weight change, dose: 500.0 mg/kg/injection, schedule: Q01DX001 (ip), vehicle: saline with Tween-80).
For the compound `Cc1ccc(S(=O)(=O)NC(=S)S)cc1`, the T/C reads like this: under setting [6], 110 % of control; under setting [1], 94 % of control; under setting [3], 91 % of control; under setting [4], 95 % of control; under setting [5], 106 % of control.
In the case of `Nc1nc(=O)n(C2OC(CO)C(O)C2O)cc1F` (centres undefined), the T/C was 91 % of control under setting [7]; 93 % of control under setting [8]; 61 % of control under setting [9]; 78 % of control under setting [10]; 46 % of control under setting [11]; 34 % of control under setting [12].
`COc1ccc(CC2C(=O)NC(C)C(=O)N(C)C3Cc4ccc(cc4)Oc4cc(ccc4O)CC(C(=O)NC(C)C(=O)NC(C)C(=O)N2C)N(C)C3=O)cc1` (centres undefined): the T/C is, setting by setting: (endpoint: median tumor weight change, dose: 1.25 mg/kg/injection, schedule: Q01DX001 (ip), vehicle: saline with Tween-80) 55 % of control; (endpoint: median tumor weight change, dose: 2.5 mg/kg/injection, schedule: Q01DX001 (ip), vehicle: saline with Tween-80) 111 % of control; (endpoint: median tumor weight change, dose: 5.0 mg/kg/injection, schedule: Q01DX001 (ip), vehicle: saline with Tween-80) 115 % of control; (endpoint: median tumor weight change, dose: 10.0 mg/kg/injection, schedule: Q01DX001 (ip), vehicle: saline with Tween-80) 56 % of control; (endpoint: median tumor weight change, dose: 20.0 mg/kg/injection, schedule: Q01DX001 (ip), vehicle: saline with Tween-80) 81 % of control.
